Source: patent US20220317111A1, “BIOASSAY METHOD” (KASHIV BIOSCIENCES, LLC, priority 2021, published 2022)

How the values were obtained:
[1] = target: T1, Human bradykinin B1 receptor cell line (Homo sapiens, UniProt P46663); assay: Bradykinin B1 receptor antagonistic activity by intracellular calcium assay (Fluo-4, LDBK agonist); assay type: cell-based; conditions: human B1 receptor cells, Fluo-4 calcium assay, agonist LDBK at EC80, with washing step
T1 sequence (P46663 1-353): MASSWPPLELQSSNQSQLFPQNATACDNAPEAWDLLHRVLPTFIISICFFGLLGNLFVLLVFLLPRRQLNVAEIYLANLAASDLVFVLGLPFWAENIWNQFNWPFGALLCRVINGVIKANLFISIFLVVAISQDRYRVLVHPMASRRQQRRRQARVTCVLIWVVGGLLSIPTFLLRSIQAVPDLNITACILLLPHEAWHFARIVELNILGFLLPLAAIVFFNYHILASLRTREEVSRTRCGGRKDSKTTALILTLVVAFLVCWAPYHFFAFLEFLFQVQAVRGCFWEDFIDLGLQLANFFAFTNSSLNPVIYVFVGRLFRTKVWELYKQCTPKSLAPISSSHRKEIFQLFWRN
Experimental: (§1) Human bradykinin B1 receptor cell line (Product #ES-091-C), Human bradykinin B2 receptor aequorin cell line (Product #ES-090-A), Fluo-4 calcium assay kits (Molecular Probes).
(§2) Agonist for B1 receptor cell line is Lys-[Des-Arg9]-Bradykinin (LDBK) and antagonist is R715. Agonist for B2 receptor cell line is BK (bradykinin) and antagonist is HOE140. All the agonist and antagonist were procured from TOCRIS. Dye loading solution was prepared by adding 10 mL of assay buffer and 100 μL of the probenecid stock solution (provided in the Kit) to one bottle of component A (dye concentrate). 0.4% Triton X-100 (4X) was used as positive control (PC) and was prepared by adding 38 uL of Triton X-100 in 10 mL of working assay buffer (WAB).
(§3) Human bradykinin B1 receptor cell line (B1) and human bradykinin B2 receptor aequorin cell line (B2) was procured from PerkinElmer, Waltham, Mass. B1 cells were cultured and maintained in Ham's F-12 medium (Gibco) supplemented with 10% fetal bovine serum (FBS) (Gibco) and 0.4 mg/ml Geneticin (Gibco) in a humidified incubator at 37° C. with 5% CO2. B2 cells were cultured and maintained in Ham's F-12 medium (Gibco) supplemented with 10% fetal bovine serum (FBS) (Gibco), 0.4 mg/ml Geneticin (Gibco) and 5 μg/ml Puromycin (Gibco) in a humidified incubator at 37° C. with 5% CO2. All the test compounds were weighed and dissolved in DMSO and a stock of 20 mM was prepared and stored at −20° C.
(§4) Bradykinin receptor antagonist screening assay was performed using Fluo-4 calcium assay kits by following the manufacturer's instruction. Briefly, approximately 30,000 of human either B1 or B2 cells were seeded in each well of a 96 black well plate. After 24 h, the growth media was removed and washed with 200 μL of assay buffer provided in the Fluo-4 calcium assay kits. Thereafter, 100 uL of Flu-4 dye-loading solution was added in each well of 96 well plate and incubated it at 37° C. for about 30 min. After about 30 minutes of incubation at room temperature, dye loading solution was removed and washed with 200 μL of WAB (mentioned in materials). Post washing, into 100 uL of WAB, 50 uL of WAB or 50 uL of cell line receptor specific antagonist (mentioned in materials) or test compound dilutions were added in 96 well plate. The plates were incubated for 20 min at room temperature with shaking at 300 rpm. At the end of the incubation time, the plates were inserted into the CLARIOstar microplate reader and % gain was adjusted. Thereafter, the plates were read at Ex/Em=494/516 nm for baseline RFU (Range 1). Thereafter, the microplate reader was paused at 11th cycle and 50 uL of 4× (EC80) cell line specific agonist (mentioned in materials) or PC dilution prepared in WAB was added and manually the plates were shaked for 5 sec. Again, the plates were read at Ex/Em=494/516 nm (Range 2).
(§5) Delta RFU was calculated using the formula:
(§6) Delta RFU=Range 2 avg RFU−Range 1 avg RFU
(§7) Based on the data the IC50 or Percent Inhibition of all the compounds was calculated.
(§8) Note: The above assay was performed using plate (flying) mode function of CLARIOstar.

[2] = target: T2, Human bradykinin B2 receptor aequorin cell line (Homo sapiens, UniProt P30411); assay: Bradykinin B2 receptor antagonistic activity by intracellular calcium assay (Fluo-4, BK agonist); assay type: cell-based; conditions: for IC50: human B2 receptor cells, Fluo-4 calcium assay, agonist BK at EC80, with washing step
T2 sequence (P30411 1-391): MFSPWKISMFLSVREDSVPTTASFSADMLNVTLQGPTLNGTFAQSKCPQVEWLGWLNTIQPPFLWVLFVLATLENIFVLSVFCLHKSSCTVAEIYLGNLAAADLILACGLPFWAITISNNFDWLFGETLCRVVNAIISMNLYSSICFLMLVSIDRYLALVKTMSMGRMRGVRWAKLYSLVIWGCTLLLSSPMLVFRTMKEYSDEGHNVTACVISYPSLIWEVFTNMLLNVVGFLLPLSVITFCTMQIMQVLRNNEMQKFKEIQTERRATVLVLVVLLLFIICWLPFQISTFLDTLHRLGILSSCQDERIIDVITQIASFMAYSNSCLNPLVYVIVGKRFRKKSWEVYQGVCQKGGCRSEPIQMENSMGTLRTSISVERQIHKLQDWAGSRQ
Experimental: as §1, §2, §3, §4, §5, §6, §7, §8

In the case of `Nc1ccc(/N=N/c2ccc(O)cc2)c(N)n1` [Compound III], the IC50 [1] is reported as 27.1 µM and the IC50 [2] is reported as 21.3 µM.
`Nc1nc(N)c(/N=N/c2ccccc2)cc1O` [Compound II] was tested, and the IC50 [1] was 12.5 µM and the IC50 [2] was 13.2 µM.
With `Nc1ccc(/N=N/c2ccccc2O)c(N)n1` [Compound IV] the IC50 [1] was 8.4 µM and the IC50 [2] was 10.9 µM.
`Nc1ccc(/N=N/c2ccccc2)c(N)n1` [Compound I] showed an IC50 [1] of 32.4 µM and an IC50 [2] of 31.9 µM.
`Nc1nc(N)c(/N=N/c2ccc(O)cc2)cc1O` [Compound V] was tested, and the IC50 [1] was 29.5 µM and the IC50 [2] was > 100 µM.
With HOE-140 [reference compound] the “IC50 without washing steps relative to IC50 with washing step” value [2] was “approximately 15 fold”.
